The results in this text go back to ChEMBL document CHEMBL1201862, “PubChem BioAssay data set” (2004).

The target of assay [1] is T1, Sentrin-specific protease 8 (Homo sapiens, UniProt Q96LD8).
T1 sequence (Q96LD8 whole entry): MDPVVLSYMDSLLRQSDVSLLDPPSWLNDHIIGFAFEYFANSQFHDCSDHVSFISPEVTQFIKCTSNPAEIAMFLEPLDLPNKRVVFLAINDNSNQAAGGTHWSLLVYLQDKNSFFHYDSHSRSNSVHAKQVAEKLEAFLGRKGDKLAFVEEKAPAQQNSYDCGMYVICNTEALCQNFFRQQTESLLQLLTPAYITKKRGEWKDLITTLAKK
Type of assay: functional.

For assay [2], the target named is T1, Sentrin-specific protease 8. Format: functional. The source holds these as a separate data set.
For the next assay, the target named is T2, Caspase-3 (Homo sapiens, UniProt P42574).
T2 sequence (P42574 whole entry): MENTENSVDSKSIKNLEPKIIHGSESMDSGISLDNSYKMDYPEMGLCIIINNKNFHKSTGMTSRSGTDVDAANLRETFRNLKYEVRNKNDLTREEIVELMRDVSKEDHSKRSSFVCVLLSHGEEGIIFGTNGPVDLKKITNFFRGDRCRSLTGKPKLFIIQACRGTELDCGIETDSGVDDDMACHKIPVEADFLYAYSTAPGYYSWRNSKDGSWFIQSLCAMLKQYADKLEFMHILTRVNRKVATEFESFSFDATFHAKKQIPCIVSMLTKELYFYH
Briefly: Dose-response confirmation of uHTS inhibitor hits of Sentrin-Specific Protease 8 in a Caspase-3 Fluorescence assay. Format: functional.

The target in assay [3] is T3, Botulinum neurotoxin type A (Clostridium botulinum (strain Hall / ATCC 3502 / NCTC 13319 / Type A), UniProt P0DPI1). As to the kind of experiment: High-throughput multiplex microsphere dose response for inhibitors of toxin protease, specifically Botulinum neurotoxin light chain A protease, compounds from Powder Set 01. Format: functional, Clostridium botulinum A str. ATCC 3502. The note with it: read-out: EC50_MICROM.

Assay [4] has as its target Botulinum neurotoxin type F (Clostridium botulinum, UniProt P30996). Briefly: High-throughput multiplex microsphere dose response for inhibitors of toxin protease, specifically Botulinum neurotoxin light chain F protease, compounds from Powder Set 01. The note with it: read-out: EC50_MICROM. Type of assay: functional, Clostridium botulinum Bf.
The target of another assay is Lethal factor (Bacillus anthracis, UniProt P15917). Briefly: High-throughput multiplex microsphere dose response for inhibitors of toxin protease, specifically Lethal Factor protease, compounds from Powder Set 01. Format: functional, Bacillus anthracis str. A2012. The note with it: read-out: EC50_MICROM.
The target of assay [5] is T3, Botulinum neurotoxin type A. Briefly: Confirmatory FRET assay using full length substrates for Botulinum neurotoxin light chain A protease, with Powder Set01. Format: functional.
In assay [6] the test system is BJ. Briefly: BJ-TERT fibroblast viability loss – cell-based, RAS-independent, luminescence, dose response (AID 1933). To be noted: Homo sapiens. Format: functional.
For assay [7], the system named is BJ. Briefly: BJ-TERT-LT-ST fibroblast viability loss – cell-based, RAS-independent, luminescence, dose response (AID 1935).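 Note: BJ fibroblasts immortalized with TERT plus LT and ST oncogenes.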 Type of assay: functional. To be noted: Homo sapiens.
A short description of assay [8]: DRD fibroblast viability loss – cell-based, non-viral oncogenic, luminescence, dose response (AID 1934). To be noted: Homo sapiens. Format: functional.
Assay [9] has as its system BJ. Briefly: growth inhibition of engineered Ras-driven BJ cells – cell-based, alamar blue fluorescence, cherrypicked samples, dose response (AID 2631).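 Note: confirmatory dose-response assay in RAS-dependent BJ fibroblasts engineered with TERT, LT and ST, with cytotoxicity read by fluorescence.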 Format: functional. To be noted: Homo sapiens.
The nature of assay [10]: reduction of Shn3 3'UTR-driven luciferase in osteoblasts – cell-based, Clone20 osteoblasts, firefly luciferase, cherry-picked, dose response (AID 624132).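 Note: firefly luciferase luminescence from reporter carrying the Shn3 3'UTR in osteoblasts.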 Format: functional.
Assay [11] is described as follows: loss of viability in HepG2 cells – cell-based, CellTiter-Glo, cherry-picked, cytotoxicity control for Shn3 inhibitor project, dose response (AID 624134). Format: functional. For orientation: In ATP-based viability assays light output follows the ATP content of the culture.
A short description of assay [12]: non-specific 3'UTR reporter inhibition in Clone20-Shn3RL – cell-based, Renilla luciferase, cherry-picked, counter-screen for Shn3 inhibitor project, dose response (AID 624133). Format: functional. For orientation: Counterscreens check selectivity or assay interference.
In assay [13] the target is T4, Rac GTPase-activating protein 1 (Homo sapiens, UniProt Q9H0H5).
T4 sequence (Q9H0H5 whole entry): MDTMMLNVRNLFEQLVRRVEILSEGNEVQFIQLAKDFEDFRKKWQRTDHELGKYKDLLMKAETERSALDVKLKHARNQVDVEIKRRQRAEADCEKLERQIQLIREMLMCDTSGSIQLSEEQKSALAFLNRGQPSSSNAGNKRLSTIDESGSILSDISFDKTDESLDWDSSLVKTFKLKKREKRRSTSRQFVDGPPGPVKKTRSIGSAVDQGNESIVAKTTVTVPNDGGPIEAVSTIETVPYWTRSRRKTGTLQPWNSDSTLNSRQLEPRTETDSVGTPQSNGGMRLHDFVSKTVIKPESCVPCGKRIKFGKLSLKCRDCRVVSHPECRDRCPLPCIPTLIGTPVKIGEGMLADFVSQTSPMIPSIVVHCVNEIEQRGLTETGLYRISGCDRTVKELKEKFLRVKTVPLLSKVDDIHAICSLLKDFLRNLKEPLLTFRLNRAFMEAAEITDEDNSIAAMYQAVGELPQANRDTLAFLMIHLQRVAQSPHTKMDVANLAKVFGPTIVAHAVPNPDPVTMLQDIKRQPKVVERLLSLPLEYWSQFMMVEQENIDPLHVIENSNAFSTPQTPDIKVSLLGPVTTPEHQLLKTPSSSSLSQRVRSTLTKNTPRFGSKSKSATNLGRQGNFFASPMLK
Briefly: blockers of MgcRacGAP-driven Rac1 GTP hydrolysis – biochemical, ADP Hunter fluorescence, primary and confirmatory, confirmation (AID 624330). Type of assay: functional.

The nature of assay [14]: viability loss in HEK293T cells – cell-based, cherry-picks, cytotoxicity control for HIV Vif inhibitor project, dose response (AID 652208). Type of assay: functional.
Assay [15] is described as follows: acridine orange displacement from DNA – biochemical, fluorescence polarization, cherry-pick, artefact control for RAD54 inhibitor project, dose response (AID 651673). Format: functional. (Fluorescence polarisation rises when a labelled molecule tumbles more slowly, as on binding a larger partner.)
Assay [16] concerns the target T5, DNA repair and recombination protein RAD54-like (Homo sapiens, UniProt Q92698).
T5 sequence (Q92698 whole entry): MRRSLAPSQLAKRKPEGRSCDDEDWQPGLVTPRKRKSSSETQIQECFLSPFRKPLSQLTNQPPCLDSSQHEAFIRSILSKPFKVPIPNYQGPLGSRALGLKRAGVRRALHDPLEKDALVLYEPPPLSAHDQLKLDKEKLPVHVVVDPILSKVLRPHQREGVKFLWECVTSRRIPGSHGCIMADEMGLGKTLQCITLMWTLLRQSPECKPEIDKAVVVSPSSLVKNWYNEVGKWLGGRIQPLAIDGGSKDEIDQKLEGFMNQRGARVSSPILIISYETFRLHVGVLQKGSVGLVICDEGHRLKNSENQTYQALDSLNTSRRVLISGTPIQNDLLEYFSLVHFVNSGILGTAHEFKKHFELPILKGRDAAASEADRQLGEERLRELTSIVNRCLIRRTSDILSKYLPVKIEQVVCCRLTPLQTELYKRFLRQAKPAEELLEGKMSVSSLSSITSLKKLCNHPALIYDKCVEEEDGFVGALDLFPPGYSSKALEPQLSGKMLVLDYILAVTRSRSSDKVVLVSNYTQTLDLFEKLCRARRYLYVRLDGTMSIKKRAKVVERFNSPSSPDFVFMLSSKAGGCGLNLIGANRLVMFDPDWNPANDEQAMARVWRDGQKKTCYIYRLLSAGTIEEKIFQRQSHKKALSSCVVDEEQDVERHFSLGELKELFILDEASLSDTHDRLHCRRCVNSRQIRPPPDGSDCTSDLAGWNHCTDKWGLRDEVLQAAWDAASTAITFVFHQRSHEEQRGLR
As to the kind of experiment: RAD54 Holliday junction migration blockers – biochemical, fluorescence, cherry-picked samples, dose series, confirmation (AID 651657). Type of assay: functional.

In assay [17] the target is T6, DNA repair protein RAD52 homolog (Homo sapiens, UniProt P43351).
T6 sequence (P43351 whole entry): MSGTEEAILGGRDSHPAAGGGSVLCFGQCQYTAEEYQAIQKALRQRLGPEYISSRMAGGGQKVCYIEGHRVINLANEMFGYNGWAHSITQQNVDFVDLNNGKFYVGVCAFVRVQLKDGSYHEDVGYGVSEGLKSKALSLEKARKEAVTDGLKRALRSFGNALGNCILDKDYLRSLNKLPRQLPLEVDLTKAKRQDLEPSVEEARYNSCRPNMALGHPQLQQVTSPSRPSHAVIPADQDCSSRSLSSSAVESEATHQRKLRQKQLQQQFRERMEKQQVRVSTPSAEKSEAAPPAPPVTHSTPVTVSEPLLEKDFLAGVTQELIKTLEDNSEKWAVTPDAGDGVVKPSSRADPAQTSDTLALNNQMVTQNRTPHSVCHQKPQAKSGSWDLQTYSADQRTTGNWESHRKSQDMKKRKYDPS
Format: functional, biochemical.

The target in assay [18] is Beta-lactamase (Salmonella choleraesuis (strain SC-B67), UniProt Q5J463). Briefly: Epi-absorbance-based counterscreen for selective VIM-2 inhibitors: dose response biochemical high throughput screening assay to identify inhibitors of TEM-1 serine-beta-lactamase.
Assay [19] concerns the target T7, Beta-lactamase (Pseudomonas aeruginosa, UniProt Q79MP6). Briefly: inhibition of IMP-1 beta-lactamase activity – biochemical, epi-absorbance, selectivity assay for VIM-2 inhibitor project, dose response (AID 1920).
In assay [20] the target is T7, Beta-lactamase. Briefly: […] counterscreen for selective VIM-2 inhibitors: dose response biochemical high throughput screening assay to identify inhibitors of IMP-1 metallo-beta-lactamase.
Assay [21] in a line: viability loss in HeLa cells – cytotoxicity control for MgcRacGAP inhibitor project, dose response (AID 624300). Format: functional.
The target of another assay is Cytochrome P450 2C9 (Homo sapiens, UniProt P11712).

For orientation: IC50 means the concentration that gives 50% inhibition. For orientation: AC50 means the concentration at which the activity in the assay is half-maximal. What is called CC50 is the concentration at which the toxic effect on the cells reaches its halfway point.

SMILES strings stand for the structures. Activity calls are given as the source filed them.

T7 sequence (Q79MP6 whole entry): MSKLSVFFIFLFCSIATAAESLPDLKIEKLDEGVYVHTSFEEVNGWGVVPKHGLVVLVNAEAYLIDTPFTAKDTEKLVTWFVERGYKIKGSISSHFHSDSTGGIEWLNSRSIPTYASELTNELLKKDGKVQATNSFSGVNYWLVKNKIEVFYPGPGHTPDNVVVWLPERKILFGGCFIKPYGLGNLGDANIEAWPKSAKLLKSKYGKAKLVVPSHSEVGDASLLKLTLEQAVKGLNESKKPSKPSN
T3 sequence (P0DPI1 2-448 limits assumed): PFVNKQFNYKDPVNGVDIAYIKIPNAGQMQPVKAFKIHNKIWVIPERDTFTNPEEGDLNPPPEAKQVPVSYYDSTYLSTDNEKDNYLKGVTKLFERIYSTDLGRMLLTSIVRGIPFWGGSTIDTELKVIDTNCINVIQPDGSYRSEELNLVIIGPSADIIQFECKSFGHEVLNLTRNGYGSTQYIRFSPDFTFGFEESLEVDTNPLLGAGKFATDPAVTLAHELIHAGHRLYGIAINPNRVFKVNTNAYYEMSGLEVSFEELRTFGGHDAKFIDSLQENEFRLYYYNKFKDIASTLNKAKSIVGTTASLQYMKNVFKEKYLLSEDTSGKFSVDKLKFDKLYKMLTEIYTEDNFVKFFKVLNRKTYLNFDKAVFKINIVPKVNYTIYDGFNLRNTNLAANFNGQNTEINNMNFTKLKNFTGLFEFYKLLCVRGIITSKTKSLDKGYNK
Sequence of Beta-lactamase (Salmonella choleraesuis (strain SC-B67), UniProt Q5J463) (Q5J463 whole entry): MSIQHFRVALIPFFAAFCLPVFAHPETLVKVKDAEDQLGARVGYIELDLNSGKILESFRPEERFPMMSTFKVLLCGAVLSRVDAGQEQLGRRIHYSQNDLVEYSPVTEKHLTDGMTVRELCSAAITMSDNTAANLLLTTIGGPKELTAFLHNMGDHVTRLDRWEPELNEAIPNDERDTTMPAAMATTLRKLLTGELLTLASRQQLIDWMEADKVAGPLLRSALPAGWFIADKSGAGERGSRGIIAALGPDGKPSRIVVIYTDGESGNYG
Sequence of Botulinum neurotoxin type F (P30996 1-436 limits assumed): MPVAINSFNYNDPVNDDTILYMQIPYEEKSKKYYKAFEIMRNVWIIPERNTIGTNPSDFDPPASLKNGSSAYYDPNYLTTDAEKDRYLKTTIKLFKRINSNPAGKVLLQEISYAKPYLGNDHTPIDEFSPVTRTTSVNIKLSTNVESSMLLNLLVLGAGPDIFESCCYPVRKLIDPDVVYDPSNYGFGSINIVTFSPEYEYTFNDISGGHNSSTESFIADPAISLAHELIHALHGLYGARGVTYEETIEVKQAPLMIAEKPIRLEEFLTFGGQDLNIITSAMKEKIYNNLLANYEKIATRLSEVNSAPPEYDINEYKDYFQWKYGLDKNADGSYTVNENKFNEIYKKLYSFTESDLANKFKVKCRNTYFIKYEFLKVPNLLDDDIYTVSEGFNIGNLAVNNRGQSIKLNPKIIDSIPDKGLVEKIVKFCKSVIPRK
Sequence of Lethal factor (P15917 whole entry): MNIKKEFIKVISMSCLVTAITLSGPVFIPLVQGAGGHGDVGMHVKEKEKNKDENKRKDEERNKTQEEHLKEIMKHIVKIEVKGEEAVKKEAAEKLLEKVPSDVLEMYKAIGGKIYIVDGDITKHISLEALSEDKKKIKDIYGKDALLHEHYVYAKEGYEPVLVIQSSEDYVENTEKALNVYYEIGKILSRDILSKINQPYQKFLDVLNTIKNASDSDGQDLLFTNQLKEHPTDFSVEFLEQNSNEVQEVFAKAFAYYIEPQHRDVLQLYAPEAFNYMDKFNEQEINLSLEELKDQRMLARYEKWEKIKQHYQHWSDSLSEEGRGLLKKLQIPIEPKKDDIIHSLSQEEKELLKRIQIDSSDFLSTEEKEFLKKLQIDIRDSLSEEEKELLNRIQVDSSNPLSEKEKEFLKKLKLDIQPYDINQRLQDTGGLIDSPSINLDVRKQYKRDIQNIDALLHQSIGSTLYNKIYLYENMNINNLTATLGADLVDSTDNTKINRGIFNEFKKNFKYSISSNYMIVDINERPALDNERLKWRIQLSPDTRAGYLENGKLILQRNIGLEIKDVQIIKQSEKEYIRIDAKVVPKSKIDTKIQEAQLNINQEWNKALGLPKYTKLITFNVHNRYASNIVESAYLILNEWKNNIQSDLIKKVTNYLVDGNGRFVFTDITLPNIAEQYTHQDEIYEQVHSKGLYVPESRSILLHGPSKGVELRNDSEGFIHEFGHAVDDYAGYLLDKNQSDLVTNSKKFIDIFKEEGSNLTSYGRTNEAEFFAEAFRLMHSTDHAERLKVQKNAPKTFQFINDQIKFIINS
Sequence of Cytochrome P450 2C9 (P11712 whole entry): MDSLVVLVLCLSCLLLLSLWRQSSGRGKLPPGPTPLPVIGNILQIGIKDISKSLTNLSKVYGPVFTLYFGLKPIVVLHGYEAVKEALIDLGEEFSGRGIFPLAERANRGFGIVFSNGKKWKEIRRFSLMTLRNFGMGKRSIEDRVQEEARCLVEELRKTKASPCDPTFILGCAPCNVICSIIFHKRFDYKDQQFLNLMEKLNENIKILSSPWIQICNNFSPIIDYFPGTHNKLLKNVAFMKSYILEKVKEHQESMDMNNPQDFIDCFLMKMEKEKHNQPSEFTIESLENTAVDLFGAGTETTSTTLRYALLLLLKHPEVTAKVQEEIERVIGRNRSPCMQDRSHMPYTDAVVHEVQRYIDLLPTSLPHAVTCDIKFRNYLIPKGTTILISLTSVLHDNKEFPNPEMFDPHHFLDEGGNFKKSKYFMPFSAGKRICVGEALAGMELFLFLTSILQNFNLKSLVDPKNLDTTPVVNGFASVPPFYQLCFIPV

For the compound `CCC(CO)Oc1cc(NCc2cccc(C)c2)c2ncn(C(C)C)c2c1` (stereo not given), the values for the IC50 (in assay [1]; in assay [2]; on Caspase-3) were 14 µM (active), 12.6 µM (active) and 46.6 µM (active), respectively.

Turning to `Cc1ccc(-c2cn3nc(-c4ccccc4)c(-c4ccccc4)nc3n2)cc1`, the EC50 in [3] was 1.5 µM (active); in assay [4], 9.1 µM (active); on Lethal factor it was 2 µM (active); in [5], 2.5 µM (active).

Turning to `CCOc1cc(/C=C2\CN(CC)C/C(=C\c3ccc(O)c(OCC)c3)C2=O)ccc1O`, the EC50 is 4.09 µM (active) in the assay on BJ [6], 3.15 µM (inconclusive) in the assay with BJ [7], 3.65 µM (active) in assay [8] and 0.583 µM (active) in the assay with BJ [9]. Further, the AC50 was 2.12 µM (active) in assay [10], 9.14 µM (active) in assay [11], 12.5 µM (active) in assay [12] and 14.7 µM (active) in [14]. Further, in [13], the IC50 was 46.6 µM (active).

Regarding `COc1ccc(-c2nc(NCCCN(C)C)c3ccccc3n2)cc1`, the results for the AC50 in assay [15], in assay [16] and in assay [17] were 46.8 µM (active), 6 µM (active) and 2.39 µM (active), respectively.

Regarding `CCCCn1c(S)nnc1-c1nn(C)cc1Cl`, the IC50 at Beta-lactamase [18], on Beta-lactamase [19] and on Beta-lactamase [20] was > 59.6 µM (inactive) throughout.

Turning to `CN(C)CCCN1c2ccc3ccccc3c2Sc2cccc(Cl)c21`, in assay [21], the CC50 was 42.8 µM (active). Further, in [13], the IC50 is 48.9 µM (active). The AC50 on Cytochrome P450 2C9 is 7.94 µM (inconclusive).
